The values below come from article PMC4858680, “A platinum-based hybrid drug design approach to circumvent acquired resistance to molecular targeted tyrosine kinase inhibitors” (Scientific Reports, 2016).

One series concerns the target FGFR2 (Homo sapiens, UniProt P21802). In words: biochemical. As to conditions: read-out: Percent control.
For another series, the target named is TRKC (Homo sapiens, UniProt Q16288). In words: biochemical. As to conditions: read-out: Percent control.
The next series has as its target T1, EPHA6 (Homo sapiens, UniProt Q9UF33).
T1 sequence (Q9UF33 23-1036): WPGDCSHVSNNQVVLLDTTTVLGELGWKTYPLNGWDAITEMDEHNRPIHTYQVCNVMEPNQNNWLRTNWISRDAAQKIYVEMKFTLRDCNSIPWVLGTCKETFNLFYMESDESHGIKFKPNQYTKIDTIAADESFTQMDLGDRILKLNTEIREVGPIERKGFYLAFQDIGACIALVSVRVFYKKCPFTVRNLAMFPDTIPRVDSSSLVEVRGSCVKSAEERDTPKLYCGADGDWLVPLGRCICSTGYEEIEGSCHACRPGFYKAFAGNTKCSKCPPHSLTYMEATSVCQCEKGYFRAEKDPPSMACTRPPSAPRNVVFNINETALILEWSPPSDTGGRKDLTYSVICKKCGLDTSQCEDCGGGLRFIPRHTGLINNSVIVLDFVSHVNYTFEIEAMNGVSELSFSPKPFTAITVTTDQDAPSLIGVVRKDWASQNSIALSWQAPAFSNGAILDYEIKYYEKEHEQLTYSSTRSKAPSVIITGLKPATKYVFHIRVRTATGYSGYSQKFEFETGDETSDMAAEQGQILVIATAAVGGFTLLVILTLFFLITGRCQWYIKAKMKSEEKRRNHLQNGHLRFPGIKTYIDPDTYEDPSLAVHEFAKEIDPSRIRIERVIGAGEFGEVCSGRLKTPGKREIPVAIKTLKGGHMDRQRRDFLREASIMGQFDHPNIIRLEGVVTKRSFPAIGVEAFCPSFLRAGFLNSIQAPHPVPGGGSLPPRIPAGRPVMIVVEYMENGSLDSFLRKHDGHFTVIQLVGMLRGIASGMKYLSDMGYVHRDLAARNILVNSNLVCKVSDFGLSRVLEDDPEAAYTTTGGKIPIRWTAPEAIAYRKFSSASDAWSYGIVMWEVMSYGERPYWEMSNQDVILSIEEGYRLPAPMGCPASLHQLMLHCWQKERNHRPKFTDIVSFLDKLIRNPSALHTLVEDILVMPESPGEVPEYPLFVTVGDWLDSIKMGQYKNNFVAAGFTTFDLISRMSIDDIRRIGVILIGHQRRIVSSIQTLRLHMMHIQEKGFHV
In words: biochemical. As to conditions: read-out: Percent control.

In another series the target is LTK (Homo sapiens, UniProt P29376). In words: biochemical. As to conditions: read-out: Percent control.
LTK, sequence (P29376 17-864): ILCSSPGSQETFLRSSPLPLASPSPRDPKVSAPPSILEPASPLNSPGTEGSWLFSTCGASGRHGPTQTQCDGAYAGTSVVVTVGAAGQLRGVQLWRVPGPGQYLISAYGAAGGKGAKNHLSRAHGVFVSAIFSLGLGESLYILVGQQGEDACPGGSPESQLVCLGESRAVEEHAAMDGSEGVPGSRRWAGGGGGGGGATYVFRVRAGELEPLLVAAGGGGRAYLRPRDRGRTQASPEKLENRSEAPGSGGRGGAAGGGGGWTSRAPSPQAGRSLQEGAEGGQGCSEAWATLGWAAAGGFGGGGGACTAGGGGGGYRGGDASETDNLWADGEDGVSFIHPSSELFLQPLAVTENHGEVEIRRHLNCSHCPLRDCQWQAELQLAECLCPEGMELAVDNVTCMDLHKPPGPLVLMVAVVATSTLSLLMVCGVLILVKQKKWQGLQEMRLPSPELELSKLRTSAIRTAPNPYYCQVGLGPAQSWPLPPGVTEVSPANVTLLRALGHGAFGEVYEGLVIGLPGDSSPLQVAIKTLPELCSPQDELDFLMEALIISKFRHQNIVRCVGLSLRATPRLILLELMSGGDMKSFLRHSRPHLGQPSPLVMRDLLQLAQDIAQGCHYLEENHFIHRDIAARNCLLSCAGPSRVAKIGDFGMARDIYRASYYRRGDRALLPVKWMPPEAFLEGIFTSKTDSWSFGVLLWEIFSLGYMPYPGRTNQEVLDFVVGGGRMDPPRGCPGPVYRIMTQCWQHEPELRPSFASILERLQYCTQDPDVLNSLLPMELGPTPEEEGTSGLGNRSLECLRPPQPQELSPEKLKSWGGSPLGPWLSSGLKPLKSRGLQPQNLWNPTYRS
The next series addresses T2, EPHB4 (Homo sapiens, UniProt P54760).
T2 sequence (P54760 16-987): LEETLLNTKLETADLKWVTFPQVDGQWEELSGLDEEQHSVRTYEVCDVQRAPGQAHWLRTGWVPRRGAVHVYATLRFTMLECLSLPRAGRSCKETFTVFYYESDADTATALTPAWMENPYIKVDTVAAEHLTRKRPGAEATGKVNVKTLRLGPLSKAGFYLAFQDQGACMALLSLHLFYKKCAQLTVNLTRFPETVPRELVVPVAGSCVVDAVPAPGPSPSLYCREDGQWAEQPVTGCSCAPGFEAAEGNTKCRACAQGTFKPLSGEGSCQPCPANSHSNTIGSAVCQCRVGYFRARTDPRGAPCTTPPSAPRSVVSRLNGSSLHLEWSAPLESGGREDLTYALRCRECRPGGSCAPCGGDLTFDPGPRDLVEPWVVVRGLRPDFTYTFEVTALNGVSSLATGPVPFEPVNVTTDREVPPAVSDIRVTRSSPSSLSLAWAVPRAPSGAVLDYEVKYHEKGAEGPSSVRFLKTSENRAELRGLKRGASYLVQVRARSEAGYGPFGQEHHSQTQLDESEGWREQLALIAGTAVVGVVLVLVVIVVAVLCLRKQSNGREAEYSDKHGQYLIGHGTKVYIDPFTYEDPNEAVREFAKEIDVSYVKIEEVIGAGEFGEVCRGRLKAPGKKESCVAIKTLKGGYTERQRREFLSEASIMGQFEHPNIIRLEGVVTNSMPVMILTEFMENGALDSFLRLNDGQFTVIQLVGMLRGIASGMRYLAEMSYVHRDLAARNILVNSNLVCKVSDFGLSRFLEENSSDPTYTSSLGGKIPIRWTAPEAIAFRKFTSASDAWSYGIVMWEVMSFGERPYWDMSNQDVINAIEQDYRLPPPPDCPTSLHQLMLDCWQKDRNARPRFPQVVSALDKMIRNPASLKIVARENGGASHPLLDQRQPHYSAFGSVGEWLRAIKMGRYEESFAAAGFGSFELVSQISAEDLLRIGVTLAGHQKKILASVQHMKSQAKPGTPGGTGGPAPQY
The experiment in a line: biochemical. As to conditions: read-out: Percent control.

The target in series [1] is T3, MET (Homo sapiens, UniProt P08581). As to conditions: 10 μM.
T3 sequence (P08581 25-1390): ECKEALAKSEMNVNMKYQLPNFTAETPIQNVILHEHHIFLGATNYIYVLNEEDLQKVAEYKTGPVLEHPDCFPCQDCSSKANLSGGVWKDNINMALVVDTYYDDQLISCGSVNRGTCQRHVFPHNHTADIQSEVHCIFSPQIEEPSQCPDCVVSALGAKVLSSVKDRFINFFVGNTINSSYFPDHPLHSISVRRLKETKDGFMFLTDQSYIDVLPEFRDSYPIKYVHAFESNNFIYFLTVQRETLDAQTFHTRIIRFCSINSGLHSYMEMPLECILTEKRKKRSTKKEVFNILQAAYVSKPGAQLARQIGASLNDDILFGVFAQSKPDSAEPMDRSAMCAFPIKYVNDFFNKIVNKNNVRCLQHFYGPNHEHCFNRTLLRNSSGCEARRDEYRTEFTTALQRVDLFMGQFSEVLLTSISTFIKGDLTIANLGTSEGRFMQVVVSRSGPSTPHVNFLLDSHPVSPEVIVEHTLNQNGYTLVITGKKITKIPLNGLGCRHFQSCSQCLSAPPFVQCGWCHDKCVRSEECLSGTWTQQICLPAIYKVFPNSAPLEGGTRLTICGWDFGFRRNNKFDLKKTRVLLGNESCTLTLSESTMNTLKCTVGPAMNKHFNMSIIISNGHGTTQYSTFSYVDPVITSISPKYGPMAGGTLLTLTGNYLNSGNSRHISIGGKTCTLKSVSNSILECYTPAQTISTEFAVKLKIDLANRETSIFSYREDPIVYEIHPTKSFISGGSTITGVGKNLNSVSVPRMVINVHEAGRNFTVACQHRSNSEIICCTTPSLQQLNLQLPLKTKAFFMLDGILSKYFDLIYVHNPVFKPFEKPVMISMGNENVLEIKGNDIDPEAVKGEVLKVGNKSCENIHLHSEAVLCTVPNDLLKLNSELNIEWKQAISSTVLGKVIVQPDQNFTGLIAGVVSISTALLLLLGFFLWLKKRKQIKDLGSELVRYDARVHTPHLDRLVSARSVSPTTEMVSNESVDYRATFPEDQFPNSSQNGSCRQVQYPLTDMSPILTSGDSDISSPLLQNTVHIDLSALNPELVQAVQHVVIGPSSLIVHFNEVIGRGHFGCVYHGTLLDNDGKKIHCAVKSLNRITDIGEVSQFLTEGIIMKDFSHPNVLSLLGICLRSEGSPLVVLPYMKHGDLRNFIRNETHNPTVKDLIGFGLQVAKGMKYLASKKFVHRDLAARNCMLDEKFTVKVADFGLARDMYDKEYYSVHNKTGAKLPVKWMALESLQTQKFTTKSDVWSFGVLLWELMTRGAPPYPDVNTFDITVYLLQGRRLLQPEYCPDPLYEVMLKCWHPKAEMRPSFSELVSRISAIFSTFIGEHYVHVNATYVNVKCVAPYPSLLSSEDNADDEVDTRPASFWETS
In series [2] the target is T4, MET(M1250T) (Homo sapiens, UniProt P08581, M1250T). Particulars: 10 μM.
T4 sequence (P08581 25-1390 M1250T): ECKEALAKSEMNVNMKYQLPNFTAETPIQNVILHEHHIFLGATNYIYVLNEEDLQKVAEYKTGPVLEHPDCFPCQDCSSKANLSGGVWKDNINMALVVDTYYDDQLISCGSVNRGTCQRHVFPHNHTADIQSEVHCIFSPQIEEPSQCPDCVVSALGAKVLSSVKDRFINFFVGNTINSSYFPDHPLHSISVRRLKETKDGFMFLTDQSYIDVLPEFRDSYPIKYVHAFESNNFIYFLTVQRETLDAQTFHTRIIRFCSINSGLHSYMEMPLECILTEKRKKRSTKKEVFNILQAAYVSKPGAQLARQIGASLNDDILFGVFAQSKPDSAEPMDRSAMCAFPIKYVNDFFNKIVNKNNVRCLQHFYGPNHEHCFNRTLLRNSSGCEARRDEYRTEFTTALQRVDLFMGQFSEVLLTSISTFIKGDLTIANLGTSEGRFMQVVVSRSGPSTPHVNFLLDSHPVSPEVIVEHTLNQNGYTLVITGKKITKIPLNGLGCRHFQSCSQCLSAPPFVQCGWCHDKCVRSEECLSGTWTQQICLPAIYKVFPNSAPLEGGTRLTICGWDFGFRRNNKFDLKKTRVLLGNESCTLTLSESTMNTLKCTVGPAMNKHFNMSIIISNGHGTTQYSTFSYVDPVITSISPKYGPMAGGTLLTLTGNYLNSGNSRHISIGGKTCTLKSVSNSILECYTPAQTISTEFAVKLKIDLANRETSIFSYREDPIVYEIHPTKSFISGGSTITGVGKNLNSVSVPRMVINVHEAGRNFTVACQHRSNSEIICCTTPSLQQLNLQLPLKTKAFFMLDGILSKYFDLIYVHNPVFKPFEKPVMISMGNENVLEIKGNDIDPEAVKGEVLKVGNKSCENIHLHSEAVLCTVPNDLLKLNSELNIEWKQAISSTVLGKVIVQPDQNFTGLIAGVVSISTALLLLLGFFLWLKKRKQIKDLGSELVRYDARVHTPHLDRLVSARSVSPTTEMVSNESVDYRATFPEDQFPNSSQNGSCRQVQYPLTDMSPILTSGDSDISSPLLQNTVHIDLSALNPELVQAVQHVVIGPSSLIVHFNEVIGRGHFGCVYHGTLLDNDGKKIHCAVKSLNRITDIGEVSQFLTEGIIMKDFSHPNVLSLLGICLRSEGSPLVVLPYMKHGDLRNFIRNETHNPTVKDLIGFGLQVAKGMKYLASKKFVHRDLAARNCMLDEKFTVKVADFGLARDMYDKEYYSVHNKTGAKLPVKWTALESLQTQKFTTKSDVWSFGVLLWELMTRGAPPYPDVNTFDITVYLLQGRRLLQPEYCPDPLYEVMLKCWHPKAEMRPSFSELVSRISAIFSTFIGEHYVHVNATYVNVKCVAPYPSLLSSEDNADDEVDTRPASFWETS
Series [3] can be described thus: Chemical stability of the hybrid compounds. Particulars: saline, phosphate buffered solution (pH 4 and 7.4), culture medium with 5 mM glutathione.
Another series addresses MET(Y1235D) (Homo sapiens, UniProt P08581, Y1235D). As to conditions: 10 μM.
Series [4] has as its target T3, MET. The experiment in a line: biochemical. As to conditions: read-out: Percent control.
In series [5] the target is T4, MET(M1250T). In words: biochemical. As to conditions: read-out: Percent control.
In another series the target is PDGFRB (Homo sapiens, UniProt P09619). In words: biochemical. Particulars: read-out: Percent control.
The next series deals with SYK (Homo sapiens, UniProt P43405). As to conditions: 10 μM.
For another series, the target named is SRC (Homo sapiens, UniProt P12931). Particulars: 10 μM.

MET(Y1235D), sequence (P08581 25-1390 Y1235D): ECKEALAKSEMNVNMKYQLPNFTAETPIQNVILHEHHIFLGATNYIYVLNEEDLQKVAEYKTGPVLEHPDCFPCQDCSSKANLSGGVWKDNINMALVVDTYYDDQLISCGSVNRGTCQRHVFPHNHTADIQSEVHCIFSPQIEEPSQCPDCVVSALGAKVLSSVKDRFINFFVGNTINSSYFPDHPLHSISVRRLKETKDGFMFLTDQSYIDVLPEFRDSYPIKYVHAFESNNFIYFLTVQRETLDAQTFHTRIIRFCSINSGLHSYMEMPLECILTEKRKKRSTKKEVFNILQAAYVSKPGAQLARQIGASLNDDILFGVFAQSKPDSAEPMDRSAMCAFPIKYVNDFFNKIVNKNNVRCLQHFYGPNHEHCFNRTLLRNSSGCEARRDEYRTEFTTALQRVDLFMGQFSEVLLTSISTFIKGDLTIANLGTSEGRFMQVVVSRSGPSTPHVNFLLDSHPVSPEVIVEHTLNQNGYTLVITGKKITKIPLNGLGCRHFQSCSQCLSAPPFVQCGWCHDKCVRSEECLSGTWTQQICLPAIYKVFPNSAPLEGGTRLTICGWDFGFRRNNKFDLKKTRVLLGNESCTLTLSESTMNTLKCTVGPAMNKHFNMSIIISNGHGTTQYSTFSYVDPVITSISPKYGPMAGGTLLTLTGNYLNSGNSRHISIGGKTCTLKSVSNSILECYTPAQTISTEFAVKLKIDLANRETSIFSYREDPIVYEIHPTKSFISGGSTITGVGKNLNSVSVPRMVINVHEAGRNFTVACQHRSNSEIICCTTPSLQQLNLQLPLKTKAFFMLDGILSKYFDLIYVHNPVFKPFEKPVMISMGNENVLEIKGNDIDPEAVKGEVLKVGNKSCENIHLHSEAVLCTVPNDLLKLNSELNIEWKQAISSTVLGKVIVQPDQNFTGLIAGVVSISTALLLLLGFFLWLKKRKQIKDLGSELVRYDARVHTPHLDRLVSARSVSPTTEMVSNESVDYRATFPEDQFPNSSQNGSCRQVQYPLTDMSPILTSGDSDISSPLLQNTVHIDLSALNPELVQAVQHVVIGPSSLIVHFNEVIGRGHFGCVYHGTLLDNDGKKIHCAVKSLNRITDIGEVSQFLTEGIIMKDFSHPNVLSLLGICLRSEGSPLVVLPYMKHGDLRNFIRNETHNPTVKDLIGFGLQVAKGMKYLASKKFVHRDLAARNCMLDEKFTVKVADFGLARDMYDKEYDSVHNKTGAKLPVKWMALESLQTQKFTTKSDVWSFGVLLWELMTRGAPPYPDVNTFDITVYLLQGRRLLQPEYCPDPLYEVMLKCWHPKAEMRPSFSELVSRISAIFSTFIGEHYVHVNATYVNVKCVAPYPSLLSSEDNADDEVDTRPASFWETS

Take `COc1cc2c(Nc3ccc(Br)cc3F)ncnc2cc1OCC1CCN(C)CC1` [Vandetanib, reference compound]: the remaining activity at 10 µM turned out to be 9.9% on FGFR2; 100% at TRKC; 0.5% on EPHA6; 5.2% at LTK; 4.9% at EPHB4.
For `Cc1ccc(NC(=O)c2ccc(CN3CCN(C)CC3)cc2)cc1Nc1nccc(-c2cccnc2)[n+]1[Pt-2]1([Cl])[NH2+]C2CCCCC2[NH2+]1` (stereo not shown) [1b, oxaliplatin-imatinib], the Percent control at MET [1] came to 88%; on MET(M1250T) [2], 89%; on MET(Y1235D) it was 100%. Besides, in [3], the “chemical stability in all conditions tested” value was “stable”.
For the compound `C#Cc1cccc(Nc2ncnc3cc(OCCOC)c(OCCOC)cc23)c1` [Erlotinib], the remaining activity at 10 µM on MET [4] was determined as 27.5%; on FGFR2, 100%; on TRKC it was 100%; on MET(M1250T) [5], 21.9%; at EPHA6, 4.2%; at LTK, 8.2%. Further, the remaining activity at 10 µM stood at 18% at EPHB4 and 12.3% at PDGFRB.
Regarding `COc1cc2c(Nc3ccc(Br)cc3F)[n+]([Pt-2]3([Cl])[NH2+]C4CCCCC4[NH2+]3)cnc2cc1OCC1CCN(C)CC1` (stereo not shown) [3b, oxaliplatin-vandetanib], the Percent control is 85% on SYK and 0.5% at SRC.
Regarding `C#Cc1cccc(Nc2c3cc(OCCOC)c(OCCOC)cc3nc[n+]2[Pt@SP2-2]([NH3+])([NH3+])[Cl])c1` [2a, cisplatin-erlotinib], the Percent control on MET [1] was 63%; at SYK it was 88%; on MET(M1250T) [2] it was 95%; on MET(Y1235D), 92%; on SRC it was 66%. Further, the “chemical stability in all conditions tested” value in series [3] is recorded as “stable”.
`Cc1ccc(NC(=O)c2ccc(CN3CCN(C)CC3)cc2)cc1Nc1nccc(-c2cccnc2)n1` [Imatinib, reference compound]: the remaining activity at 10 µM amounted to 100% at MET [4], 100% on MET(M1250T) [5] and 0.1% on PDGFRB.
